Results on two compounds are retold here after publication PMC10818931, “In Vitro Evaluation of Drug–Drug Interaction Potential of Epetraborole, a Novel Bacterial Leucyl-tRNA Synthetase Inhibitor” (Pharmaceuticals, 2024).

Common to all, as to assay type: in vitro ADME
In one data set the target is P-gp (Homo sapiens, UniProt P08183). Briefly: Substrate potential for P-gp, bidirectional permeability in MDR1-MDCK. The conditions noted are these: for Concentration in the receiver compartment: 5 µM, MDR1-MDCK and MDCK cells, A to B and B to A, Papp and efflux ratio could not be calculated; for as a Substrate: P-gp. How it is done:
In vitro evaluation of the substrate potential of EBO (5 µM) and M3 (5 µM) for P-gp was conducted in single transporter-transfected and non-transfected Madin–Darby canine kidney (MDCK) cells monolayers according to Absorption Systems (Exton, PA, USA) standard operating procedures (SOP). The integrity of each cell monolayer was evaluated by lucifer yellow presence.

The target of another data set is T1, OATP1B3 (Homo sapiens, UniProt Q9NPD5).
T1 construct: host or cells: MDCK
T1 sequence (Q9NPD5 1-702): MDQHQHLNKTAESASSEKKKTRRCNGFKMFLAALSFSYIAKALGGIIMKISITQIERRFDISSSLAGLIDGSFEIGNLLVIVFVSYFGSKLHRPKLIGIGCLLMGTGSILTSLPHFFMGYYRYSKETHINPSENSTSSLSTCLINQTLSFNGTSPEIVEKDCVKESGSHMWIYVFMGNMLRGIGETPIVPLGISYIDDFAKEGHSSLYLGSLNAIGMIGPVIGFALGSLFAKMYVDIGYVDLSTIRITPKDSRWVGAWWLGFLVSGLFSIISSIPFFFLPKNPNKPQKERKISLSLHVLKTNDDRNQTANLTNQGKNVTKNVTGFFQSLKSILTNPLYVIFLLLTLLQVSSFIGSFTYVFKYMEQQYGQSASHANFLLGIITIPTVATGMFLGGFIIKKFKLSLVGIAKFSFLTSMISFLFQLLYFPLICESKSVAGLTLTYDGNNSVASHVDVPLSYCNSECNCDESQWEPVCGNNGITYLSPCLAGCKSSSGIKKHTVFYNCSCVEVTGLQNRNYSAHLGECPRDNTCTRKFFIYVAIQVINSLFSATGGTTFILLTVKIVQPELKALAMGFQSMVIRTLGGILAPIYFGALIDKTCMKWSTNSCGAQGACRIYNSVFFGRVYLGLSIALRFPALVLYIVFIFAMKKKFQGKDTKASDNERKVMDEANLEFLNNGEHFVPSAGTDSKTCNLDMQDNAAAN
As to the kind of experiment: Uptake transporter inhibition in transfected HEK 293 or MDCK cells. How it is done:
(§1) Cell monolayers were preincubated (37 °C) for 15 to 30 min in a transport medium containing the target concentration of EBO or a specific inhibitor without substrate. Following the removal of preincubation solutions, appropriate working solutions containing EBO at the target concentration plus the probe substrate were added to the wells in triplicate. Separate sets of triplicate wells were designated for probe substrate only and probe substrate plus the specific inhibitors, to determine the maximal uptake rate and maximal inhibition of uptake, respectively. After incubation at 37 °C for each transporter, the working solution was removed from each well and the experiment was stopped by washing three times with cold (4 °C) DPBS. Depending on the substrate label, cells were either lysed for the analysis of total radioactivity (liquid scintillation counter) or LC-MS/MS methods. For measuring relative fluorescence (FLUOstar Galaxy, Cary, NC, USA), cells were not lysed.

The target of another data set is T2, OAT1 (Homo sapiens, UniProt Q4U2R8).
T2 construct: host or cells: MDCK
T2 sequence (Q4U2R8 1-563): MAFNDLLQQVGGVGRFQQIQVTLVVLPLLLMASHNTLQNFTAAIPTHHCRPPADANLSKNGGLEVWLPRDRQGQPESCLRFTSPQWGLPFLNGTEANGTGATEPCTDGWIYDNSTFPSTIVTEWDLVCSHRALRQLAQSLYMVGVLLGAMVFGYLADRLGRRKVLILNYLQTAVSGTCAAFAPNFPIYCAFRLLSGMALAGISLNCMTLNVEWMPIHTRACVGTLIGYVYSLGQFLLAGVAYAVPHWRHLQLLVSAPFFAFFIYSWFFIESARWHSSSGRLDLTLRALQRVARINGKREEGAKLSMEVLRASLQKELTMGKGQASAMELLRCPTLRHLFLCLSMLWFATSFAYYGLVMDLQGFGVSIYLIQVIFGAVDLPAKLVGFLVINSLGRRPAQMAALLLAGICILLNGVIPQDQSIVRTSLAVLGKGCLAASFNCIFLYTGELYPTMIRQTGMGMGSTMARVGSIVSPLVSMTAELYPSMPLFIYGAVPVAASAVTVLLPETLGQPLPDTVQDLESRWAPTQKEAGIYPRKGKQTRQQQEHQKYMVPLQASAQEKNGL
The data set is described as above. As to conditions: read-out: as an Inhibitor, IC50. How it is done: as §1

A further data set addresses T3, OAT3 (Homo sapiens, UniProt Q8TCC7).
T3 construct: host or cells: MDCK
T3 sequence (Q8TCC7 1-542): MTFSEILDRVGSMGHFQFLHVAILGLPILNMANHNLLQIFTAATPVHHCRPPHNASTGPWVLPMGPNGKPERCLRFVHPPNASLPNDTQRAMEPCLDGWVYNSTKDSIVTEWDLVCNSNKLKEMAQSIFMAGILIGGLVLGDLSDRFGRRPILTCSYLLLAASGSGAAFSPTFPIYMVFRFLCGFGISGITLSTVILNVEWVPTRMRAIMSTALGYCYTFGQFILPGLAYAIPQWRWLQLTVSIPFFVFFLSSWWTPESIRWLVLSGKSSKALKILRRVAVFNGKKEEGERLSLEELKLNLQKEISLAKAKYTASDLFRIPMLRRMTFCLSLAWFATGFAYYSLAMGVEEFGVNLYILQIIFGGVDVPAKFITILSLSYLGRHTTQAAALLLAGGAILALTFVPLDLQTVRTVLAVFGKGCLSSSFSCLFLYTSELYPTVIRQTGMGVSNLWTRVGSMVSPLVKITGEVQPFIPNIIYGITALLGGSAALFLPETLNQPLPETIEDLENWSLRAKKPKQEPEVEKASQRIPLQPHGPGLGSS
Described as above. As to conditions: for Inhibition (in words): concentrations up to 1000 μM; for IC50: read-out: as an Inhibitor, IC50. How it is done:
as §1

Another data set deals with T4, MATE2K (Homo sapiens, UniProt Q86VL8).
T4 construct: host or cells: MDCK
T4 sequence (Q86VL8 1-566 isoform Q86VL8-3): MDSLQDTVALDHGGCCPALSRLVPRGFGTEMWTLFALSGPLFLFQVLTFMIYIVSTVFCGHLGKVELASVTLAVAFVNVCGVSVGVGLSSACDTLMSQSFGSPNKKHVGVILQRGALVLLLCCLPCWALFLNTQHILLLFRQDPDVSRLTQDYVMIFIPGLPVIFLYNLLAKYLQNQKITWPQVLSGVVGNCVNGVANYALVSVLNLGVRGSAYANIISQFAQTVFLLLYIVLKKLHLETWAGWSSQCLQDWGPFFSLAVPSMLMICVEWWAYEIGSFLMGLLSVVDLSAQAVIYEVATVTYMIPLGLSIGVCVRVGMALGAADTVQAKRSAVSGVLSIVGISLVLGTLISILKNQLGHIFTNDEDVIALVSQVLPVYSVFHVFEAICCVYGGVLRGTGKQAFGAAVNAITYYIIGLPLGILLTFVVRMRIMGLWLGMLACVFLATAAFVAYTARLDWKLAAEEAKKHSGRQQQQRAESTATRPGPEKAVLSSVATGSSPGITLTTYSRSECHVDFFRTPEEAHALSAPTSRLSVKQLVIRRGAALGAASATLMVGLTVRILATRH
As to the kind of experiment: Transporter inhibition. As to conditions: read-out: as an Inhibitor, IC50.

P-gp, sequence (P08183 whole entry): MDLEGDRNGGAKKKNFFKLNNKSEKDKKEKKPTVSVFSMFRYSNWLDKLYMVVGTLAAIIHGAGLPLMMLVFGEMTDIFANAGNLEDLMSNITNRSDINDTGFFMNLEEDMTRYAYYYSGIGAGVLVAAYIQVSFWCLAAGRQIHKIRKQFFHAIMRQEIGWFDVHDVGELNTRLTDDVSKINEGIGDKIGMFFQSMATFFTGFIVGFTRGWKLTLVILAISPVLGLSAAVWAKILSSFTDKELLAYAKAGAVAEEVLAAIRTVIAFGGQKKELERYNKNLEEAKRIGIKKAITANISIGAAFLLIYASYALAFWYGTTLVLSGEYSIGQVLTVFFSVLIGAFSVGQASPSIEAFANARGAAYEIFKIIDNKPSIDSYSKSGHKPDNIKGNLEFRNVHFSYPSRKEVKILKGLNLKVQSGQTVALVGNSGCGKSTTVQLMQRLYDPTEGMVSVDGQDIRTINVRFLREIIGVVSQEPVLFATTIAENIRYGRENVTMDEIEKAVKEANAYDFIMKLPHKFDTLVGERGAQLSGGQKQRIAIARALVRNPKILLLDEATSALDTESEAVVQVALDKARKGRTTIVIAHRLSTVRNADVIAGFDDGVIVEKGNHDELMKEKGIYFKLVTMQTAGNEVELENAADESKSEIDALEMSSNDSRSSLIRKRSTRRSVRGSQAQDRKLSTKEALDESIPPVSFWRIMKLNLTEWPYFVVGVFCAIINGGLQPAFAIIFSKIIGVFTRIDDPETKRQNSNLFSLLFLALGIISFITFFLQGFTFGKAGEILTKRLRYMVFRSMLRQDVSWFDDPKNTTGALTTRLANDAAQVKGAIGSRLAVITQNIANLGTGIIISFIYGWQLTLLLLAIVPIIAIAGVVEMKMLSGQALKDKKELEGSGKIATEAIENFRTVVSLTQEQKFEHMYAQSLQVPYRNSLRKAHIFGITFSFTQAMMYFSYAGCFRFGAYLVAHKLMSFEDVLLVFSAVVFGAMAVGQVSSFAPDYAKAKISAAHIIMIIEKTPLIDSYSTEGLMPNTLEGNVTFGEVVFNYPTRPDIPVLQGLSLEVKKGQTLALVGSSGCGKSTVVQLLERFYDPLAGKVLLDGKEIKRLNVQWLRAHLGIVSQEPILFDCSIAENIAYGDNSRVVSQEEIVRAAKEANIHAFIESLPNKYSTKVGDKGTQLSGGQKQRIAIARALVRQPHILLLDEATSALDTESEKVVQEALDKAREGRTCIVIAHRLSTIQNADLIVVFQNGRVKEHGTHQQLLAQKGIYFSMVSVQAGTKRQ

For orientation: IC50 means the concentration that inhibits the measured activity by half. As to `NC[C@H]1OB(O)c2c(OCCC(=O)O)cccc21` [M3], the “Concentration in the receiver compartment” value on P-gp is given as “below the lower limit of quantification”. Moreover, the “as a Substrate” value on P-gp is “No”. Moreover, the IC50 was more than 250 µM on OATP1B3 (read-out: as an Inhibitor, IC50); more than 250 µM on OAT1; more than 1000 µM on OAT3; more than 250 µM on MATE2K. Further, the “Inhibition (in words)” value at OAT3 is listed as “did not inhibit”.

The term inhibition denotes the relative decrease from the control value, in per cent. The low end stands for little suppression, the high end for strong suppression. Regarding `NC[C@H]1OB(O)c2c(OCCCO)cccc21` [EBO, Epetraborole], the “Concentration in the receiver compartment” value on P-gp was “below the lower limit of quantification”. For the same compound, the “as a Substrate” value at P-gp was “No”. The same compound had an inhibition at 500 µM against OATP1B3 (human, HEK 293 or MDCK cells transfected with OATP1B3, at 500 µM) of 21%. In addition, the figures for the IC50 at OAT1, at OAT3 and on MATE2K were more than 1000 µM, more than 1000 µM and more than 100 µM, respectively. Also, the “Inhibition (in words)” value on OAT3 is “did not inhibit”.
